Laboratory results taken from US10697970B2, “S100A9 levels for predicting lenalidomide and erythropoietin responsiveness” (H. LEE MOFFITT CANCER CENTER AND RESEARCH INSTITUTE, INC., priority 2015, dated 2020).

What was measured:
[1] = tested on: U937 cells; experiment: Pyroptosis / active caspase-1 flow cytometry in U937 cells treated with rhS100A9; format: cell-based
Experimental: Monocytic U937 cells were treated with the indicated concentrations of rhS100A9 for 24 hours, or with 5 μg/mL rhS100A9 for the indicated time points. Subsequently, cells were stained with 30×FAM-FLICA® Caspase-1 solution at a ratio of 1:30 for 2 hours at 37° C. Cells were washed, resuspended in 1× binding buffer, and stained with Annexin-V:PE at a dilution of 1:30 for 15 minutes at room temperature. 1× binding buffer was added to a final volume of 350 μL. Sample acquisitions were carried out using a BD FACSCalibur flow cytometer (BD Biosciences). Data were analyzed using FlowJo 9.7.5 software.

[2] = tested on: U937 cells; experiment: a-caspase-1/NLRP3 confocal microscopy (inflammasome formation) in U937 cells; format: cell-based; conditions: U937, 5 μg/mL rhS100A9, 24 hours
[3] = tested on: normal BM-MNC; experiment: qPCR of pyroptosis-associated genes in normal BM-MNC treated with rhS100A9; format: cell-based, human; conditions: normal BM-MNC (n=2), 1 μg/mL rhS100A9, 24 hours
Experimental: RNA was isolated from BM-MNC using the RNeasy Mini Kit (Qiagen). cDNA was produced using the iScript cDNA Synthesis Kit (Bio-Rad). Sequences for primers can be found in Table 1. GAPDH mRNA was used for transcript normalization. cDNA was amplified using the iQ SYBR Green Supermix and the CFX96 Real-Time PCR Detection System (Bio-Rad). PCR conditions were as follows: 10 minutes at 95° C., followed by 40 cycles of amplification (15 seconds at 95° C. and 1 minute at 60° C.). Relative gene expression was calculated using the […] method.

[4] = tested on: normal BM-MNC; experiment: a-caspase-1/NLRP3 confocal microscopy in normal BM-MNC treated with rhS100A9; format: cell-based, human; conditions: 5 μg/mL rhS100A9, 24 hours
Experimental: (§1) MDS and normal donor BM-MNC and mouse BM cells were stained with 30×FAM-FLICA® Caspase-1 solution at a ratio of 1:30 for 2 hours at 37° C. Cells were washed and cytospins were generated using a 5 minutes centrifugation at 450 rpm. Slides were fixed at 37° C. for 10 minutes using BD Cytofix Fixation Buffer (BD Biosciences), and subsequently washed using PBS. Cells were permeabilized with 0.1% Triton X-100/2% BSA in PBS for 15 minutes at room temperature. After washing with PBS, cells were blocked using 2% BSA in PBS for 30 minutes at room temperature, and washed again. Cells were incubated with the appropriate primary antibody overnight (1:400 for NLRP3, 1:20 for β-catenin) at 4° C. The next day, cells were washed with PBS and incubated with the appropriate secondary antibodies (1:500) for 1 hour at room temperature. After washing, cells were covered with ProLong Gold Antifade Reagent with DAPI prior to the addition of a coverslip (Life Technologies). Co-localization of a-caspase-1 with NLRP3 inflammasome complexes was assessed using a Leica TCS SP5 AOBS Laser Scanning Confocal microscope (Leica Microsystems). Analysis of the inflammasome images was performed with Definiens Developer 2.0 (Definiens AG). The software was used to segment cells based on brightness and size thresholds, followed by a watershed segmentation algorithm. Intensity values and Pearson's correlation coefficient were extracted from the segmented cells. For β-catenin image analysis, confocal images were imported into Definiens Tissue Studio v3.0, 64 Dual in .tif format. Cells were separated from background using the RGB thresholds. Nuclei were identified by setting thresholds in the DAPI channel. Typical cells averaged 60 microns. The red intensity (β-catenin) in the nucleus and cytoplasm was established by setting thresholds to low, medium and high in the red channel on a scale of 0-255 in the red channel.

[5] = tested on: U937 cells; experiment: Pore formation assay (ethidium bromide uptake) in U937 cells; format: cell-based; conditions: U937, 12.5 μg/mL EB, 5 μg/mL rhS100A9
[6] = tested on: BM cells isolated from WT mice; experiment: a-caspase-1/NLRP3 confocal microscopy in WT mouse BM cells treated with rhS100A9; format: cell-based; conditions: 5 μg/mL rhS100A9, 24 hours
Experimental: as §1

[7] = tested on: U937 cells; experiment: ROS detection by flow cytometry in U937 cells; format: cell-based; conditions: U937, 5 μg/mL rhS100A9, 24 hours, compared to untreated cells
Excerpt: (§2) ROS were detected using CM-H2DCFDA and Cell ROX® Deep Red Reagent according to manufacturer's protocol (Life Technologies).

[8] = tested on: U937 cells; experiment: Comet assay (DNA damage) in U937 cells; format: cell-based; conditions: U937, 5 μg/mL rhS100A9, 24 hours, compared to untreated cells
Experimental: Monocytic U937 cells were treated with 5 μg/mL rhS100A9 for 24 hr. DNA damage was measured by single cell gel electrophoresis using alkaline CometAssay® according to manufacturer's protocol (Trevigen Inc.).

[9] = tested on: U937 cells; experiment: Nuclear β-catenin confocal microscopy in U937 cells; format: cell-based; conditions: U937, 5 μg/mL rhS100A9, 24 hours, compared to untreated cells
[10] = tested on: normal BM-MNC; experiment: Nuclear β-catenin confocal microscopy in normal BM-MNC; format: cell-based, human
Experimental: as §1, with “Intensity values and Pearson's correlation coefficient were extracted from the segmented cells. For β-catenin image analysis, confocal images were imported into Definiens Tissue Studio v3.0, 64 Dual in .tif format. Cells were separated from background using the RGB thresholds. Nuclei were identified by setting thresholds in the DAPI channel. Typical cells averaged 60 microns. The red intensity (β-catenin) in the nucleus and cytoplasm was established by setting thresholds to low, medium and high in the red channel on a scale of 0-255 in the red channel.” left out

[11] = tested on: HepG2 cells; experiment: Epo elaboration by HepG2 cells (ELISA); format: cell-based, human; conditions: for suppression of Epo production by the inflammatory protein alone: HepG2, vehicle control arm of lenalidomide experiment, S100A9 1 μg/ml or TNFα 10 ng/ml
Experimental: HepG2 cells, acquired from American Type Culture Collection (ATCC, Manassas, Va.), were grown in EMEM supplemented with 10% FBS and 1% penicillin/streptomycin solution. Cells were maintained at 37° C. under 5% CO2.
Quantitation of human S100A9/MRP14 in patient serum and supernatant of the HepG2 cell line was performed using CircuLex S100A9/MRP14 ELISA Kit (MBL, Nagano, Japan). Quantitative measurement of human TNFα and IL-1β from serum patients and supernatant of HepG2 cell line were performed using Human IL-1β ELISA Kit and Human TNFα ELISA Kit (Life Technologies, Carlsbad, Calif., USA). Quantitation of human Epo in patient serum and HepG2 cell line supernatant was performed using Human Erythropoietin ELISA kit (Stemcell Technologies, Vancouver, BC, Canada). All samples were performed in duplicate.

[12] = tested on: MDS patients; conditions: MDS patients; cited from earlier work
[13] = tested on: U2AF1-S34F mutant cells; experiment: Nuclear β-catenin confocal microscopy in U2AF1-S34F mutant TF-1 cells; format: cell-based; conditions: 24 hours treatment
[14] = tested on: SF3B1-K700E mutant-expressing BM cells; experiment: ASC staining flow cytometry (inflammasome formation) in SF3B1-K700E BM cells; format: cell-based, mouse; conditions: 24 hours treatment
Experimental: Staining was carried out as described ([…], et al. J Immunol. 2015 194(1):455-62). Briefly, cell pellets were resuspended in 1 mL of prewarmed BD Permeabilization Buffer III, and incubated on ice for 30 minutes. Cells were washed 2× with staining buffer. Following washing, cells were stained with rabbit-anti-ASC primary antibodies at a 1:1500 dilution and incubated for 90 minutes. Cells were washed, stained with secondary antibodies at a dilution of 1:1500, and incubated for 45 minutes. Cells were washed, and sample acquisitions were carried out using a BD LSR II flow cytometer and FACSDiva software.

[15] = tested on: SF3B1-K700E-expressing mutant BM cells; experiment: ROS detection in SF3B1-K700E BM cells; format: cell-based, mouse
Excerpt: as §2

[16] = tested on: SF3B1-K700E mutant-expressing BM cells; experiment: Nuclear β-catenin confocal microscopy in SF3B1-K700E BM cells; format: cell-based, mouse; conditions: 24 hours treatment
Experimental: as §1, with “Intensity values and Pearson's correlation coefficient were extracted from the segmented cells. For β-catenin image analysis, confocal images were imported into Definiens Tissue Studio v3.0, 64 Dual in .tif format. Cells were separated from background using the RGB thresholds. Nuclei were identified by setting thresholds in the DAPI channel. Typical cells averaged 60 microns. The red intensity (β-catenin) in the nucleus and cytoplasm was established by setting thresholds to low, medium and high in the red channel on a scale of 0-255 in the red channel.” left out

[17] = U937, increasing concentrations of rhS100A9, 24 hours

rhS100A9: Recombinant human S100A9, DAMP/alarmin protein, ligand for CD33 and TLR4, generated as previously described
activation of caspase-1 ([1]; U937, 5 μg/mL rhS100A9 over time): time-dependent increase
a-caspase-1 MFI and percentage of a-caspase-1+ cells [1, 17]: corresponding increase
fraction of pyroptotic cells [1, 17]: concentration-dependent increase
levels of NLRP3 inflammasome complexes [2]: markedly increased
expression of pyroptosis-associated genes [3]: significantly up-regulated
NLRP3 levels induced [4]: 47.1 fold
a-caspase-1 levels induced [4]: 2.5 fold
formation of NLRP3 inflammasomes [4]: 2.9 fold
uptake of ethidium bromide [5]: rapid and substantial uptake
inflammasome complexes [6]: marked induction
MFI of NLRP3 ([6]; versus controls): significantly increased
MFI of a-caspase-1 ([6]; versus controls): significantly increased
increase in mean percentage of ROS-positive cells [7]: 2.9 fold
increase in DNA damage [8]: 4.1 fold
levels of nuclear (activated) β-catenin [9]: marked increases
levels of nuclear β-catenin ([10]; normal BM-MNC, 5 μg/mL rhS100A9, 24 hours, compared to controls): elevated levels
reduction in Epo elaboration ([11]; HepG2, 1 μg/ml, 24 h exposure): 95%
Epo elaboration ([11]; HepG2, 10 to 20 μg/ml, 24 h exposure): completely suppressed
suppression of Epo production by the inflammatory protein alone [11]: 95%

TNFα
reduction in Epo elaboration ([11]; HepG2, 10 ng/ml, 24 h exposure): 40%
suppression of Epo production by the inflammatory protein alone [11]: 30%

IL-1β: inflammatory cytokine interleukin-1β purchased from Sigma-Aldrich
reduction in Epo elaboration ([11]; HepG2, 10 ng/ml, 24 h exposure): 60%

erythropoietin: erythropoietin treatment for anemia in MDS
patients with MDS in whom treatment may improve anemia [12]: 15-20%

CC(=O)N[C@@H](CS)C(=O)O [NAC, N-acetylcysteine]
S100A9-triggered nuclear translocation of β-catenin ([10]; normal BM-MNC treated with S100A9 plus anti-oxidant): abolished
β-catenin activation in mutant cells [13]: effectively reduced
inflammasome formation (ASC) [14]: significantly reduced
mean percentage of ROS+ cells and ROS MFI [15]: extinguished below the level of WT controls
percentage of cells with elevated levels of nuclear β-catenin [16]: significantly reduced

c1ccc2c(c1)[I+]c1ccccc1-2 [DPI]
β-catenin activation in mutant cells [13]: effectively reduced
inflammasome formation (ASC) [14]: significantly reduced
mean percentage of ROS+ cells and ROS MFI [15]: extinguished below the level of WT controls
percentage of cells with elevated levels of nuclear β-catenin [16]: significantly reduced
